Patent US5498624A, “Selected pyrazolyl derivatives” (Monsanto Company, priority 1995, dated 1996)

Experiments:
[1] = system: Erysiphe graminis f. sp. tritici; assay: Wheat Powdery Mildew Foliar Assay (WPM Prot); type: in vivo
Description: A) Pathogen/Inoculum Production--Leaf material infected with the wheat powdery mildew fungus, Erysiphe graminis f. sp. tritici, is maintained continuously on wheat seedlings, cv. Caldewell.
(B) Host Propagation, (C) Compound Preparation and (D) Compound Application follow as per Example 1.
(E) Inoculation/Incubation--Inoculation of the test plants takes place 24 hours after compound application. Inoculation is accomplished by gently shaking plants previously infected with the Erysiphe graminis f. sp. tritici fungus over the test plants. This process liberates a cloud of spores which effectively and uniformly fall onto the test plants. After inoculation the plants are returned to the environmental conditions under which they were grown.
(F) Evaluation and (G) Data follow as per Example 1. The percent protection values for the compounds of the present invention are as set out in the Table below.

[2] = system: Pseudocercosporella herpotrichoides var. tritici; assay: Wheat True Eyespot In Vitro Assay (WES In Vitro); type: cell-based; design: key: 0: no inhibition of mycelial growth; 1: slight inhibition of mycelial growth; 2: moderate inhibition of mycelial growth; 3: strong inhibition of mycelial growth; settings: 3 days at 19° C.
Description: A) Pathogen/Inoculum Production--A mycelial transfer of Pseudocercosporella herpotrichoides var. tritici is placed onto potato dextrose agar plates and allowed to grow for 40 days at 20 ° C., without light. Five agar discs are taken from the actively growing culture and are placed equidistant, mycelial side down, onto a water agar plate, and incubated at 10 ° C. with 10 hours of fluorescent light per day. After 5 days of incubation, sporulation on the transferred discs begins, and plates are flooded with 3-5 mls sterile deionized water. One-half ml aliquots are taken from the resulting spore suspension and placed on new water agar plates. Spores are spread across plates using a bent glass rod and incubated at 10 ° C. with 10 hour fluorescent light periods per day. In 5-10 days, a lawn of spores is produced and can be "harvested".
B) Compound Preparation and Test Execution--200 μl of 1/4 strength potato dextrose broth is placed in each well of a 96 well microtiter plate. […] The commercial standard used is prochloraz at equivalent rates.
C) Inoculation/Incubation--50 μl of a 1×10^6 spores/ml suspension harvested using the method above is added to each well. The 96 well plates are incubated for 3 days at 19° C. in the dark.
D) Evaluation--After incubation, each well is visually assessed for growth inhibition on the following 0-3 scale:
0=no inhibition of mycelial growth
1=slight inhibition of mycelial growth
2=moderate inhibition of mycelial growth
3=strong inhibition of mycelial growth

Septoria nodorum = assay: Wheat Glume Blotch Foliar Assay, protectant (WGB Prot); type: in vivo; settings: application two days pre-inoculation
Description: A) Host Propagation--Winter wheat plants, cv. Caldwell, are grown in 5.7 cm^2 pots, three per pot, and maintained in a growth chamber set at 20° C., 80% RH with a 12 hour photoperiod.
B) Compound Preparation--A 1.0% stock solution of each of the compounds of the present invention is first prepared utilizing an appropriate solvent such as acetone, water or DMSO. This stock is then used to prepare the final spray solution which contains the compound at the desired dosage, eg 100 ppm and 20 ppm, acetone at 20% v/v, Tween®20 at .05% w/v, and water at about 80%. Commercial standard used is tebuconazole at equivalent rates.
C) Compound Application, Seedlings are sprayed at the two-leaf stage (GS 12) using a DeVilbiss Model 152 hand operated sprayer set at 15-20 psi. Six ml of the test solution per treatment are applied to three pots. In the protectant assay (EXAMPLE 8), the compound application is made two days pre-inoculation. In the curative assay (EXAMPLE 9), the compound is applied during a brief interruption of the disease incubation period two days post-inoculation.
D) Pathogen Production/Inoculation--The wheat glume blotch fungus, Septoria nodorum, is maintained in the pycnidial state on yeast malt agar (YMA) and transferred weekly by streaking a suspension of conidia obtained from a ten to twelve day old sporulating culture onto fresh YMA plates. The plates are incubated at 20° C. with a 12 hour photoperiod.
Test inoculum is prepared by flooding seven day old culture plates with deionized water amended with Tween®20 (0.1% v/v) and gently scraping the pycnidia to release the extruding masses of conidia. The resulting spore suspension is filtered through two layers of cheese cloth and adjusted to 4×10^6 spores/ml utilizing the Tween®20 solution.
Forty-eight hours after the compound application and prior to inoculation, the test plants are preconditioned for at least one hour in a dark growth chamber set at 20° C. and 100% RH. After the preconditioning period is over, the conidial suspension is applied to run-off using a DiVilbiss hand operated sprayer. The plants are then returned to the preconditioning chamber and incubated at the same settings for 96 hours. Light is supplied to the plants during the last twelve hours of incubation. At the end of the 96 hour period, the plants are returned to the environmental conditions under which they were grown.
E) Test Evaluation--Eight to ten days after removal from the high humidity chamber, or twelve to fourteen days after inoculation, treatments are evaluated by visually estimating the percentage of the leaf area (on the first leaf) covered with lesions. Three ratings are made on each pot which constitutes a replicate. Each replicate then receives a numerical mean by averaging the three values. Percent disease, as well as percent control values are calculated. The percent control values obtained from these assays for the compounds of the present invention are as set out in the Table below.

[3] = 20 ppm foliar protectant, * = averaged value
[4] = 100 ppm foliar protectant, * = averaged value

| SMILES | WPM Prot percent disease control [1, 3] [%] | WPM Prot percent disease control [1, 4] [%] | WES In vitro growth inhibition 0-3 scale ([2]; 0.1 ppm) | WES In vitro growth inhibition 0-3 scale ([2]; 0.5 ppm) | WES In vitro growth inhibition 0-3 scale ([2]; 5.0 ppm) | WGB Prot percent control (Septoria nodorum; 20 ppm, * = averaged value) [%] | WGB Prot percent control (Septoria nodorum; 100 ppm, * = averaged value) [%] | WGB Prot percent control (Septoria nodorum; 500 ppm, wheat) [%] | WPM Prot percent disease control ([1]; 500 ppm foliar protectant) [%] |
| --- | --- | --- | --- | --- | --- | --- | --- | --- | --- |
| C[C@@H]1CCC[C@H](c2ccccc2NC(=O)c2cn(C)nc2C(F)F)C1 (relative stereo) [Number 2, 1H-pyrazole-4-carboxamide, 3-(difluoromethyl)-1-methyl-N-[2-(-3-methylcyclohexyl)phenyl]-, cis-] | 44 | 65 | 1 | 2 | 3 | 56 | 86 | 99 | – |
| C[C@H]1CCC[C@H](c2ccccc2NC(=O)c2cn(C)nc2C(F)F)C1 (relative stereo) [Number 3, 1H-pyrazole-4-carboxamide, 3-(difluoromethyl)-1-methyl-N-[2-(3-methylcyclohexyl)phenyl]-, trans-] | 77 | 100 | 1 | 2 | 3 | 79 | 90 | – | – |
| Cn1cc(C(=O)Nc2ccccc2[C@@H]2CCC[C@@H](C(F)(F)F)C2)c(C(F)F)n1 (relative stereo) [Number 6] | – | – | 0 | 0 | 2 | 70 | 86 | 89 | 98 |
| CC[C@H]1CC[C@@H](c2ccccc2NC(=O)c2cn(C)nc2C(F)F)CC1 [Number 1, 1H-pyrazole-4-carboxamide, 3-(difluoromethyl)-N-[2-(4-ethylcyclohexyl)phenyl]-1-methyl-, cis-] | – | – | 0 | 3 | 3 | – | – | – | – |
| Cn1cc(C(=O)Nc2ccccc2[C@H]2CC[C@H](C)CC2)c(C(F)(F)F)n1 [Number 4, 1H-pyrazole-4-carboxamide, 1-methyl-N-[2-(4-methylcyclohexyl)phenyl]-3-(trifluoromethyl)-, trans-] | 65 | 91 | 1 | 2 | 3 | 81 | 97 | – | 100 |
| Cn1cc(C(=O)Nc2ccccc2C2CCC(C)(C)CC2)c(C(F)F)n1 [Number 5, 1H-pyrazole-4-carboxamide, 3-(difluoromethyl)-N-(2-(4,4-dimethylcyclohexyl)phenyl]-1-methyl-] | 52 | 79 | 1 | 3 | 3 | 47 | 93 | – | 92 |
